Results on five compounds are retold here after patent US7514419B2, “Phosphorus-containing thyromimetics” (Metabasis Therapeutics, Inc., priority 2003, dated 2009).

The term Ki denotes the equilibrium dissociation constant of an inhibitor or competing ligand from its target.

Each structure is given as a SMILES string.

One data set concerns mice. Put plainly: Circulating TSH, mice, 77 days. The format is in vivo, mouse. The settings on record: 10 mg/kg/d for 77 days. From the text:
(§1) Another concern with synthetic thyromimetics is the suppression of the endogenous thyroid axis. Thyroid homeostasis is maintained by the action of thyroid releasing hormone (TRH) and thyroid stimulating hormone (TSH). […] Although this particular side effect has been noted, it has typically been treated with less concern than the cardiac safety issues. […] Therefore previous investigators have measured TSH levels when testing synthetic thyromimetics and have used a 30% decrease of TSH as the denominator in their therapeutic index calculations. […] Therefore, both compounds suppress TSH as doses lower than that required to decrease circulating cholesterol. […] However, 0.2 mg/kg/d of Compound 18 in 28 day treated ZDF rats, decreased TSH levels greater than 90%.

The subject of data set [1] is cholesterol-fed rat. Put plainly: Subacute study in cholesterol-fed rats, IP once-a-day for seven days: serum cholesterol, heart weight, heart mGPDH.
Description: The cholesterol-fed rat is an animal model of hypercholesterolemia generated by feeding the animals a diet with high cholesterol content.
Methods: Rats were maintained on a diet containing 1.5% cholesterol and 0.5% cholic acid for 2 weeks prior to initiation of treatment. Serum cholesterol values were assessed and the animals randomized into groups for treatment.
Data set [2] concerns ZDF rats. Briefly: Hepatic triglyceride content and steatosis in ZDF rats, oral 28 days. The format is in vivo, rat. The method, then:
In other experiments, Compound 7 was orally administered to ZDF rats for 28 days. Liver triglycerides were analyzed as described above. Total liver triglycerides were reduced in the treated animals 42% in the 2.5 mg/kg/d group. […] The hepatic steatosis is a well known and described phenomenon for the ZDF rat, and therefore not attributable to vehicle treatment.

Data set [3] deals with ZDF rats. Put plainly: Circulating TSH, ZDF rats, 28 days. The format is in vivo, rat. The settings on record: 50 mg/kg/d for 28 days.
Description: as §1

A further data set deals with Normal rats. Briefly: Hepatic triglyceride content in normal rats infused for 7 days. The format is in vivo, rat. The note with it: normal rats chronically infused for 7 days. How it is done:
Normal rats were chronically infused with Compound 7 for 7 days. Liver triglycerides were analyzed following lipid extraction by the Bligh Dyer method (Bligh EG and Dyer WJ, A rapid method of total lipid extraction and purification. Can J Med Sci. 1959 (August); 37(8):911-7, incorporated herein by reference). Total triglycerides were analyzed in the liver extracts by an enzymatic assay (Thermo Electron Corporation). Total lipid was normalized to initial liver weight and triglyceride content was normalized to liver weight. […] There was a 4% reduction in liver triglycerides for this group and the results were not statistically significant.

In data set [4] the test system is normal rats maintained on a cholesterol-containing diet. Briefly: Continuous infusion study in rats on a cholesterol-containing diet. The note with it: continuous infusion 1 mg/kg/day.
Description: Screening for thyromimetic activity was performed in normal rats maintained on a cholesterol-containing diet.
For another data set, the system named is Sprague Dawley (SD) rat. Put plainly: Cardiovascular activity in the Sprague Dawley rat, 7 days oral. The note with it: SD rats, Compound 18 1 mg/kg, Compound cis-13-1 1-50 mg/kg/day. The format is in vivo. From the text: Method: […] The control group (n=6) was given vehicle only. […] On the 7th day after the start of dosing, animals were anesthetized with Isofluorane and the left ventricle cannulated with a high fidelity catheter tip transducer via the right carotid artery. Left ventricular pressure, its first derivative (LVdP/dt), lead I ECG, and heart rate (HR) triggered off the ECG waveform, were digitally recorded. LV dP/dt is a well accepted measure of ionotropic state. Systolic and diastolic aortic pressures were measured by retracting the catheter into the proximal aorta.

Data set [5] deals with Hypercholesterolemic rats. Put plainly: Cholesterol lowering in hypercholesterolemic rats. The note with it: 0.5 mg/kg/d orally. The format is in vivo, rat.
Data set [6] deals with ZDF rats. The note with it: rat, in vivo, 28 days. The method, then:
Compound 18 was administered at doses up to 5 mg/kg/d. Compound cis-13-1 was administered at doses up to 50 mg/kg/d. We reasoned that the ZDF rat, as a metabolically challenged animal model, would be more sensitive to the potential adverse cardiac effects of thyromimetics than a normal, cholesterol-fed rat. At sacrifice, heart rate, and the first derivative of left ventricular pressure (LV dP/dt) were measured with a Millar catheter inserted into the left ventricle.

Data set [7] concerns cholesterol-fed rat. The settings on record: ED15 for heart rate compared to ED50 for cholesterol lowering; cited from earlier work.
Another data set relates to cholesterol fed rats. Put plainly: Subacute study in cholesterol fed rats, PO once a day for seven days: cholesterol reduction, heart weight. The settings on record: 1 mg/kg/day PO once a day for seven days. The format is in vivo, rat. How it is done: Methods: […] Compound 13-1-cis and Compound 18 were administered PO once a day for seven days. Serum TSH is measured using an enzyme immunoassay (EIA) kit designed for rat TSH (Amersham Pharmacia Biotech, Arlington Heights, Ill.). Expression levels of liver genes (e.g., the LDL-receptor, apoB, cpt-1, spot14 and apoAI) and heart genes ([…]2, HCN2,Kvl.5, MHCα, MHCβ, Alpha1c) are quantified by Northern blot analysis or by RT-PCR. […] Oligonucleotides specific for the complementary gene sequences are used to make ^32P-labeled probes (Multiprime DNA labeling systems, Amersham Pharmacia Biotech). Following hybridization of the probes to the nylon membranes, radioactivity is assessed on a blue film (Eastman Kodak Co,), and the resulting image quantified using the appropriate software. RT-PCR is performed using an iCycler instrument (Biorad) using appropriate primers by means of standard methodology [[…] et al. (2000) Life Sciences 66: 1683-94]. […] The activities of PEPCK and glucose 6-phosphatase in liver are measured by means of direct enzymatic assays of homogenized liver tissue as described by Andrikopoulos S et al. (1993) Diabetes 42: 1731-1736. Alternatively, expression levels of the corresponding genes are determined by Northern blot analysis or RT-PCR as described above.

A further data set deals with cholesterol-fed rats. Briefly: Circulating TSH, cholesterol-fed rats, 7 days. The settings on record: cholesterol-fed rats treated for 7 days; 30% decrease of TSH. The format is in vivo, rat.
Description: as §1

In data set [8] the target is T1, human thyroid hormone receptors TRα1 (Homo sapiens, UniProt P10827).
T1 sequence (P10827 1-410 isoform P10827-2): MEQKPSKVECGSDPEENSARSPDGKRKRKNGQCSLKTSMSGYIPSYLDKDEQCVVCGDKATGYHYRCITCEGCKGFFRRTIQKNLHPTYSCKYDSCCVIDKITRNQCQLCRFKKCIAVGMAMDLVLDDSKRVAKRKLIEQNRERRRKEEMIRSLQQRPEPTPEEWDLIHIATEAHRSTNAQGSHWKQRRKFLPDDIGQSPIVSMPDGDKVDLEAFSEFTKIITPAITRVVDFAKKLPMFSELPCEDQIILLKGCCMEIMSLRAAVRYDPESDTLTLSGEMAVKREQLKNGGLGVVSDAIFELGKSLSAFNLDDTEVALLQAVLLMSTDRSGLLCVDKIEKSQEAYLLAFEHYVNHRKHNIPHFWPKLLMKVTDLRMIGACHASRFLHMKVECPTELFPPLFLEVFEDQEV
T1 sequence (P19793 1-462 partner): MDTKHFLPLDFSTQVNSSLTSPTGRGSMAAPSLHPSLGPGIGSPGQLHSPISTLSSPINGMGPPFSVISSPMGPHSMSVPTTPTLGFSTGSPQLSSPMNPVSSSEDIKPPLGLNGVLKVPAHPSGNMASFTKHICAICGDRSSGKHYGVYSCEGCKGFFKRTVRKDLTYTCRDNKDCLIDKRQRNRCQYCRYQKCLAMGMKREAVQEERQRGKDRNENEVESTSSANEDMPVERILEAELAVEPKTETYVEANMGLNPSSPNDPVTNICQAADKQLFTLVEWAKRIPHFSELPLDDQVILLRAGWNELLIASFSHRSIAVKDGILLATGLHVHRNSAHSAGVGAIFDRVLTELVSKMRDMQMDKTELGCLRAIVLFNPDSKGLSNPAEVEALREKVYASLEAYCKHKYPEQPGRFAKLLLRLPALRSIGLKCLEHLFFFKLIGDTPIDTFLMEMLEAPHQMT
Briefly: Receptor binding: labeled T3 binding/displacement, gel filtration and scintillation proximity assay (SPA). The note with it: read-out: Ki TRα. On the technique in general: SEC sorts molecules by how far they enter the pores of the column.

For data set [9], the target named is T2, human thyroid hormone receptors TRβ1 (Homo sapiens, UniProt P10828).
T2 sequence (P10828 1-461): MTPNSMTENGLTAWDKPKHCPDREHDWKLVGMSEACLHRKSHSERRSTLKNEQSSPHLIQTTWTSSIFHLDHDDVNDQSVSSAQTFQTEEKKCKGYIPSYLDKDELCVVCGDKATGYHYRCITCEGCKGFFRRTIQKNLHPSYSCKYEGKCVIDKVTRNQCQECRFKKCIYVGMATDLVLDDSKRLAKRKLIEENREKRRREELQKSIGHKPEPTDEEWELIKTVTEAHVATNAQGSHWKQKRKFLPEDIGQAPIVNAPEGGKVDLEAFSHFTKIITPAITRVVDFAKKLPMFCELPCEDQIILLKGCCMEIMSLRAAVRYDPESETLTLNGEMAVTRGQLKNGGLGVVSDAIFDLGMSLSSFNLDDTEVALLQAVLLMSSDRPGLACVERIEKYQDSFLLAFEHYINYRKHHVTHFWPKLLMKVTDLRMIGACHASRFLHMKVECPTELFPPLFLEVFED
T2 sequence (P19793 1-462 partner): T1 sequence (P19793 1-462 partner)
The data set is described as above. The note with it: read-out: Ki TRβ.

In the case of `Cc1cc(OCP(=O)(O)O)cc(C)c1Cc1ccc(O)c(C(C)C)c1` [Compound 7, [3,5-dimethyl-4-(4′-hydroxy-3′-iso-propylbenzyl)phenoxy]-methylphosphonic acid], in the data set on mice, the TSH result is on record as “no decrease in TSH was observed”. Further, in the data set on cholesterol-fed rat [1] (Compound 17 at 1 mg/kg/day, compound 7 only at 100 mg/kg), the “Cardiac GPDH activity” value is “trend towards increased heart GPDH activity”. Moreover, the “therapeutic window (efficacy vs toxicity)” value in the data set with cholesterol-fed rat [1] (cholesterol lowering vs cardiac hypertrophy, induction of heart GPDH) is recorded as 10-to 100 fold. For the same compound, the “microvesicular steatosis (H&E liver sections)” value in the data set on ZDF rats [2] was “dose dependent reduction in the microvesicular steatosis”. Also, the TSH vs vehicle entry in the data set with ZDF rats [3] is given as “no statistically significant difference from vehicle”. For the same compound, the “decrease in hepatic triglyceride content” value in the data set with Normal rats is recorded as 64%. Besides, in data set [4], the “total cholesterol at day 7” value was “cholesterol lowering effects” and the “total cholesterol at day 14” value is recorded as “cholesterol lowering effects”. Besides, the “cardiovascular parameters (heart rate, LV dP/dt, blood pressure)” value in data set [4] (day 7 or day 14) is reported as “no changes in any of the cardiovascular parameters”.
Consider `Cc1cc(OC[P@@]2(=O)OCC[C@@H](c3cccc(Cl)c3)O2)cc(C)c1Cc1ccc(O)c(C(C)C)c1` [Compound 13-1-cis, Cis (S)-2-[(3,5-Dimethyl-4-(4′-hydroxy-3′-iso-propylbenzyl)phenoxy)methyl]-4-(3-Chlorophenyl)-2-oxo-2λ^5-[1,3,2]-dioxaphosphinane], for which, in the data set with Sprague Dawley (SD) rat, the “HR, LV dP/dt and aortic pressure compared to vehicle” value was “not significantly different compared to vehicle treated animals”; the “heart weight and heart weight normalized to body weight” value is “no significant changes”. Further, the cholesterol lowering result in data set [5] is on record as “significant lowering of cholesterol”. In addition, in the data set on ZDF rats [6] (ZDF), the “TI Improvement, ED15 HR” value is listed as above 39 and the “TI Improvement, ED25 LV dP/dt” value is above 102. Further, in the data set with ZDF rats [6], the “calculated TI in a non-metabolically challenged animal with respect to LV dP/dt” value is listed as > 10,000 and the “calculated TI in a non-metabolically challenged animal with respect to heart rate” value is above 3900.
Turning to `CC(C)c1cc(Oc2c(Cl)cc(CC(=O)O)cc2Cl)ccc1O` [Compound 18, 3,5-dichloro-4-[4′-hydroxy-3′-iso-propylphenoxy]-benzeneacetic acid, reference compound], the “HR, LV dP/dt and aortic pressure compared to vehicle” value in the data set with Sprague Dawley (SD) rat was “marked and statistically significant increases”. Besides, the “therapeutic index (TI) with respect to heart rate increases” value in the data set on cholesterol-fed rat [7] was 40. Moreover, in the data set with ZDF rats [6] (ZDF, po), the “TI for LV dP/dt” value was determined as 0.15 and the “therapeutic index with respect to heart rate” value worked out at 0.4. For the same compound, the serum cholesterol result with cholesterol fed rats was “significantly decreased serum cholesterol”. Besides, in the data set on cholesterol-fed rats, the “therapeutic index of TSH levels” value is 0.4.
With `Cc1cc(C(=O)CP(=O)(O)O)cc(C)c1Cc1ccc(F)c(C(C)C)c1` [Compound 41-2], the Ki in data set [8] and in data set [9] was above 2 µM throughout.
On to `Cc1cc(CCP(=O)(O)O)cc(C)c1Oc1ccc(F)c(C(C)C)c1` [Compound 42-2], for which the Ki in data set [8] and in data set [9] was above 2 µM each time.
